{
  "source": "patent US8303962B2",
  "about": "“Antibacterial and antifungal peptides” (C3 Jian, Inc., priority 2009, dated 2012)",
  "note": "Peptide text beside a SMILES is read from it.",
  "data": [
    {"test_system": "T. rubrum", "assay": "not given", "assay_type": "cell-based, Trichophyton rubrum", "details": "not given", "description": "(§1) In certain embodiments the MIC assays are performed as described herein in the Examples. For each organism, the media and growth conditions utilized is detailed in Table 8.\n(§2) In certain embodiments the MIC assays are performed as follows: For each organism, the media and growth conditions utilized is detailed in Table 8.", "units": {"MIC": "µM"}, "values": [
      {"compound": "CC(C)[C@H](NC(=O)[C@H](CCCCN)NC(=O)[C@H](Cc1c[nH]c2ccccc12)NC(=O)CNC(=O)[C@@H](NC(=O)[C@H](CC(=O)O)NC(=O)[C@H](CO)NC(=O)[C@H](Cc1c[nH]cn1)NC(=O)CNC(=O)[C@@H]1CCCN1C(=O)[C@@H](NC(=O)[C@H](CCCNC(=N)N)NC(=O)[C@H](CO)NC(=O)[C@@H](N)Cc1c[nH]c2ccccc12)C(C)C)[C@@H](C)O)C(=O)N[C@@H](Cc1c[nH]c2ccccc12)C(=O)N[C@@H](Cc1c[nH]cn1)C(=O)N[C@@H](CCCNC(=N)N)C(=O)N[C@@H](Cc1c[nH]c2ccccc12)C(=O)O", "note": "[PF-547] (H-WSRVPGHSDTGWKVWHRW-OH; N-terminus and C-terminus assumed)", "MIC": 25}
    ]},
    {"test_system": "M. furfur ATCC 14521", "assay": "not given", "details": "5 μM peptide, after 15 min of treatment, 30° C., 10^6 cells/ml, CFU vs no-peptide control", "description": "FIG. 1. Killing kinetics of PF-S028 L and D versions against M. furfur were determined using standard time-kill methods previously detailed (Eckert et al. (2006) Antimicrob Agents Chemother., 50: 1480-1488). Briefly, a log phase culture of M. furfur ATCC 14521 was diluted to 10^6 cells/ml in ATCC medium 1072. To the reaction tubes 5 μM of either PF-S028 L or PF-S028 D were added. A reaction tube to which 4 μl of 50% methanol served as the negative control. Reaction tubes were stored at 30° C. and at indicated intervals an aliquot was removed from the reaction tube and placed in a recovery tube where peptide was removed by dilution. An aliquot from the recovery tube was plated on ATCC medium 1072 agar plates and incubated at 30° C. until visible colonies formed. Colony forming units were calculated for the negative control (no peptide), PF-S028 L, and PF-S028 D treated cultures.\nIn some cases killing kinetic experiments were then conducted. Killing kinetics of PF-S028 L and D versions against M. furfur were determined as described in Eckert et al. (2006) Antimicrob Agents Chemother., 50: 1480-1488. Briefly, a log phase culture of M. furfur ATCC 14521 was diluted to 10^6 cells/ml in ATCC medium 1072. To the reaction tubes 5 μM of either PF-S028 L or PF-S028 D were added. […] Colony forming units were calculated for the negative control (no peptide), PF-S028 L, and PF-S028 D treated cultures.", "values": [
      {"compound": "CC[C@@H](C)[C@@H](NC(=O)[C@H](NC(=O)[C@@H](CO)NC(=O)CN)C(C)C)C(=O)N[C@H](CCCCN)C(=O)N[C@H](CCCCN)C(=O)N[C@H](CCCNC(=N)N)C(=O)N[C@H](CCCNC(=N)N)C(=O)N[C@H](CCCCN)C(=O)N[C@H](CCCNC(=N)N)C(=O)N[C@H](CCSC)C(=O)N[C@H](CO)C(=O)N[C@H](CCCCN)C(=O)N[C@H](CCCCN)C(=O)N[C@H](CCCCN)C(=O)N[C@H](Cc1c[nH]cn1)C(=O)N[C@H](CCCNC(=N)N)C(=O)N[C@H](CCCCN)C(=O)N[C@H](CCSC)C(=O)N[C@H](CC(C)C)C(=O)N[C@H](CCCNC(=N)N)C(=O)N[C@H](CCCNC(=N)N)C(=O)N[C@@H](C(=O)N[C@H](CCCNC(=N)N)C(=O)N[C@@H](C(=O)N[C@H](CCC(N)=O)C(=O)N[C@H](CCCNC(=N)N)C(=O)N[C@H](CCCNC(=N)N)C(=O)N[C@H](CCCCN)C(=O)N[C@H](CC(C)C)C(=O)NCC(=O)N[C@H](CCCCN)C(=O)O)C(C)C)[C@H](C)O", "note": "[PF-S028 D]", "M. furfur killed": "over 99%"},
      {"compound": "CC[C@H](C)[C@H](NC(=O)[C@@H](NC(=O)[C@H](CO)NC(=O)CN)C(C)C)C(=O)N[C@@H](CCCCN)C(=O)N[C@@H](CCCCN)C(=O)N[C@@H](CCCNC(=N)N)C(=O)N[C@@H](CCCNC(=N)N)C(=O)N[C@@H](CCCCN)C(=O)N[C@@H](CCCNC(=N)N)C(=O)N[C@@H](CCSC)C(=O)N[C@@H](CO)C(=O)N[C@@H](CCCCN)C(=O)N[C@@H](CCCCN)C(=O)N[C@@H](CCCCN)C(=O)N[C@@H](Cc1c[nH]cn1)C(=O)N[C@@H](CCCNC(=N)N)C(=O)N[C@@H](CCCCN)C(=O)N[C@@H](CCSC)C(=O)N[C@@H](CC(C)C)C(=O)N[C@@H](CCCNC(=N)N)C(=O)N[C@@H](CCCNC(=N)N)C(=O)N[C@H](C(=O)N[C@@H](CCCNC(=N)N)C(=O)N[C@H](C(=O)N[C@@H](CCC(N)=O)C(=O)N[C@@H](CCCNC(=N)N)C(=O)N[C@@H](CCCNC(=N)N)C(=O)N[C@@H](CCCCN)C(=O)N[C@@H](CC(C)C)C(=O)NCC(=O)N[C@@H](CCCCN)C(=O)O)C(C)C)[C@@H](C)O", "note": "[PF-S028 L]", "M. furfur killed": "39%"}
    ]},
    {"test_system": "Candida albicans", "assay": "Peptide binding to Candida albicans", "details": "tested at 3.13, 6.25, 12.5 and 25.0 μM in 1× PBS or 20 mM HEPES, 150 mM NaCl, 1 mM MgCl2, 0.1% CTAB", "description": "The peptides in Table 6 were tested for binding efficiency at 3.13, 6.25, 12.5 and 25.0 μM concentrations in 1× phosphate-buffered saline or 20 mM HEPES (4-(2-hydroxyethyl)-1-piperazineethanesulfonic acid), 150 mM sodium chloride, 1 mM magnesium chloride and 0.1% CTAB.", "values": [
      {"compound": "CC[C@H](C)[C@H](NC(=O)[C@H](C)NC(=O)[C@@H]1CCCN1C(=O)[C@H](Cc1ccccc1)NC(=O)[C@@H]1CCCN1C(=O)[C@H](CC(C)C)NC(=O)[C@@H](N)C(C)C)C(=O)N1CCC[C@H]1C(=O)N[C@@H](CC(C)C)C(=O)N[C@@H](CO)C(=O)N[C@@H](CCCNC(=N)N)C(=O)N[C@@H](CCCNC(=N)N)C(=O)N[C@@H](CCCNC(=N)N)C(=O)N[C@@H](C)C(=O)N[C@@H](CS)C(=O)N[C@H](C(=O)N[C@@H](C)C(=O)N[C@@H](C)C(=O)N1CCC[C@H]1C(=O)N[C@@H](CCCNC(=N)N)C(=O)N1CCC[C@H]1C(=O)N[C@@H](CCCNC(=N)N)C(=O)N[C@@H](CO)C(=O)N[C@@H](CCCNC(=N)N)C(=O)N[C@@H](CCC(N)=O)C(=O)N[C@@H](CCCNC(=N)N)C(=O)N[C@@H](C)C(=O)N[C@@H](CO)C(=O)O)C(C)C", "note": "[PF-168] (H-VLPFPAIPLSRRRACVAAPRPRSRQRAS-OH; N-terminus and C-terminus assumed)", "Target(s): form of Candida albicans bound": "yeast cells"},
      {"compound": "CC[C@H](C)[C@H](NC(=O)[C@H](CC(N)=O)NC(=O)[C@@H](NC(=O)[C@H](Cc1ccccc1)NC(=O)[C@H](CCC(=O)O)NC(=O)CNC(=O)[C@H](CCC(N)=O)NC(=O)[C@H](Cc1ccccc1)NC(=O)[C@@H](N)CCCCN)[C@@H](C)O)C(=O)NCC(=O)N[C@@H](CCC(N)=O)C(=O)N[C@@H](CO)C(=O)N[C@@H](Cc1ccc(O)cc1)C(=O)N[C@H](C(=O)N[C@H](C(=O)N[C@@H](CO)C(=O)N[C@@H](C)C(=O)N[C@@H](CO)C(=O)N[C@@H](Cc1c[nH]cn1)C(=O)N[C@@H](CCSC)C(=O)N[C@@H](CO)C(=O)N[C@H](C(=O)N[C@@H](CO)C(=O)N[C@@H](CC(C)C)C(=O)N[C@@H](CC(N)=O)C(=O)N[C@H](C(=O)NCC(=O)N[C@@H](CCCCN)C(=O)O)[C@@H](C)O)[C@@H](C)O)C(C)C)[C@@H](C)CC", "note": "[PF-583] (H-KFQGEFTNIGQSYIVSASHMSTSLNTGK-OH; N-terminus and C-terminus assumed)", "Target(s): form of Candida albicans bound": "hyphae"},
      {"compound": "AIEGVIKKGACFKLLRHEMF (Antimicrobial peptide and/or targeting peptide) [PF-167]", "Target(s): form of Candida albicans bound": "yeast cells"},
      {"compound": "DLRKAK (Antimicrobial peptide and/or targeting peptide) [PF-024]", "Target(s): form of Candida albicans bound": "hyphae"},
      {"compound": "EILNNNQVIKELTMKYKTQFESNLGGWTARARR (Antimicrobial peptide and/or targeting peptide) [PF-580]", "Target(s): form of Candida albicans bound": "hyphae"},
      {"compound": "EVYSSPTNNVAITVQNN (Antimicrobial peptide and/or targeting peptide) [PF-178]", "Target(s): form of Candida albicans bound": "hyphae"},
      {"compound": "GGTKEIVYQRG (Antimicrobial peptide and/or targeting peptide) [1T-68]", "Target(s): form of Candida albicans bound": "yeast cells"},
      {"compound": "GVGIGFIMMGVVGYAVKLVHIPIRYLIV (Antimicrobial peptide and/or targeting peptide) [PF-770]", "Target(s): form of Candida albicans bound": "hyphae"},
      {"compound": "HARAAVGVAELPRGAAVEVELIAAVRP (Antimicrobial peptide and/or targeting peptide) [1T-65]", "Target(s): form of Candida albicans bound": "hyphae"},
      {"compound": "HSSHL (Antimicrobial peptide and/or targeting peptide) [PF-060]", "Target(s): form of Candida albicans bound": "hyphae"},
      {"compound": "KLRSASKKSLQEKSCGIMPEKPAG (Antimicrobial peptide and/or targeting peptide) [PF-206]", "Target(s): form of Candida albicans bound": "hyphae"},
      {"compound": "LVRLA (Antimicrobial peptide and/or targeting peptide) [PF-636]", "Target(s): form of Candida albicans bound": "hyphae"},
      {"compound": "MIHLTKQNTMEALHFIKQFYDMFFILNFNV (Antimicrobial peptide and/or targeting peptide) [PF-040]", "Target(s): form of Candida albicans bound": "hyphae"},
      {"compound": "MPKARPVNHNKKKSKITIKSNFTLFYMFNP (Antimicrobial peptide and/or targeting peptide) [PF-634]", "Target(s): form of Candida albicans bound": "hyphae"},
      {"compound": "NILFGIIGFVVAMTAAVIVTAISIAK (Antimicrobial peptide and/or targeting peptide) [PF-543]", "Target(s): form of Candida albicans bound": "hyphae"},
      {"compound": "NRQAQGERAHGEQQG (Antimicrobial peptide and/or targeting peptide) [1T-70]", "Target(s): form of Candida albicans bound": "yeast cells"},
      {"compound": "RFFNFEIKKSTKVDYVFAHVDLSDV (Antimicrobial peptide and/or targeting peptide) [PF-051]", "Target(s): form of Candida albicans bound": "hyphae"},
      {"compound": "RLARGRPTNLCGRRG (Antimicrobial peptide and/or targeting peptide) [PF-170]", "Target(s): form of Candida albicans bound": "yeast cells"},
      {"compound": "RLTSNQFLTRITPFVFAQH (Antimicrobial peptide and/or targeting peptide) [PF-176]", "Target(s): form of Candida albicans bound": "yeast cells"},
      {"compound": "SKFELVNYASGCSCGADCKCASETECKCASKK (Antimicrobial peptide and/or targeting peptide) [PF-761]", "Target(s): form of Candida albicans bound": "hyphae"},
      {"compound": "VVRRFQGM (Antimicrobial peptide and/or targeting peptide) [PF-141]", "Target(s): form of Candida albicans bound": "hyphae"},
      {"compound": "VYRHLRFIDGKLVEIRLERK (Antimicrobial peptide and/or targeting peptide) [1T-36]", "Target(s): form of Candida albicans bound": "hyphae"}
    ]},
    {"test_system": "B. subtilis", "assay": "not given", "assay_type": "cell-based, Bacillus subtilis", "details": "not given", "description": "as §1, §2", "units": {"MIC": "µM"}, "values": [
      {"compound": "CC(C)[C@H](NC(=O)[C@H](CCCCN)NC(=O)[C@H](Cc1c[nH]c2ccccc12)NC(=O)CNC(=O)[C@@H](NC(=O)[C@H](CC(=O)O)NC(=O)[C@H](CO)NC(=O)[C@H](Cc1c[nH]cn1)NC(=O)CNC(=O)[C@@H]1CCCN1C(=O)[C@@H](NC(=O)[C@H](CCCNC(=N)N)NC(=O)[C@H](CO)NC(=O)[C@@H](N)Cc1c[nH]c2ccccc12)C(C)C)[C@@H](C)O)C(=O)N[C@@H](Cc1c[nH]c2ccccc12)C(=O)N[C@@H](Cc1c[nH]cn1)C(=O)N[C@@H](CCCNC(=N)N)C(=O)N[C@@H](Cc1c[nH]c2ccccc12)C(=O)O", "note": "[PF-547] (H-WSRVPGHSDTGWKVWHRW-OH; N-terminus and C-terminus assumed)", "MIC": 25}
    ]}
  ]
}
